From article PMC8243515 (JHEP Reports, 2021)
Entries after “also recorded” stand apart in the source; their conditions may differ. Where two headings read alike, the source gives them in different places.

Legend:
HepG2-NTCPsec+ cells = experiment: Cell viability by automated nuclei counting; type: cell-based, human; details: hit confirmation DRC, 10-point serial dilutions starting at 25 μM
HBV [1] = experiment: microbe, parasite or virus in culture; type: cell-based, hepatitis B virus genotype D; details: for %Imax, p1 infection: percent maximum inhibition; for effect on p1 cell infection (phenotype): reference inhibitors, assay validation
HBV [2] = experiment: microbe, parasite or virus in culture; type: cell-based, hepatitis B virus genotype D; details: for Emax: read-out: %Imax; for p2 cells still infected at high inhibitor concentrations: high concentrations of late-phase reference inhibitors; for %Imax, p2 infection: percent maximum inhibition
HIV-1 = type: cell-based, HIV-1 strain LAI; details: Fig. S3
SARS-CoV-2 [3] = type: cell-based
HBV [4] = experiment: Time-of-addition experiments, HBV infection; type: cell-based, hepatitis B virus; details: pretreatment/cotreatment vs post-inoculation 1-7 dpi
NTCP [5] = molecular target: T1, NTCP (Homo sapiens, UniProt Q14973); experiment: Binding assay of Alexa633-labelled HBV preS1 peptide; details: for effect on preS1 peptide binding to NTCP: cytochalasin D tested up to 50 μM
T1 sequence (Q14973 1-349): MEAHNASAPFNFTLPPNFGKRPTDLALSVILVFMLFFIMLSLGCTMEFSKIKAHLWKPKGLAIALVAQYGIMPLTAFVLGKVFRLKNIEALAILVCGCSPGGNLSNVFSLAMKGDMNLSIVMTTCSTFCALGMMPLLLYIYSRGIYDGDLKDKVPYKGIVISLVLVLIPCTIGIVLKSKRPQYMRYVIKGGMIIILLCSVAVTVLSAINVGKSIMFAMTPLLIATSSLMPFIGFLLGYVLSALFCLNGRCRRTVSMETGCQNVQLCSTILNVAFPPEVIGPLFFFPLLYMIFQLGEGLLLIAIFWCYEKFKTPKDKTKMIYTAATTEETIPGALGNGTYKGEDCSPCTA

[6] = system: HBV preS1 peptide internalisation; experiment: Live-cell imaging of Alexa633-labelled preS1 peptide internalisation; type: cell-based; details: after transfer to 37°C, confocal live-cell imaging
SARS-CoV-2 [7] = details: virus-free, live-cell assay; cited from earlier work
HBV [8] = details: read-out: Published EC50, cited from earlier work
HCV = type: cell-based
HBV [9] = experiment: Stably HBV replicating HepAD38 cells, supernatant HBV DNA by quantitative PCR; type: cell-based, hepatitis B virus; details: supernatant qPCR at 7 days post-treatment
NTCP [10] = molecular target: T1, NTCP; details: transiently NTCP-transfected U2OS cells; cited from earlier work
HBV and HDV = details: cited from earlier work
[11] = Hepatitis B virus, read-out: EC50 (μM), early HBV life cycle inhibitors
[12] = read-out: EC50, p1 infection, p1 cells, DRC of reference inhibitors

CN1c2cc3c(cc2N=C(c2ccc(C(=O)O)cc2)c2ccccc21)C(C)(C)CCC3(C)C [LE 135]
CC50 (HepG2-NTCPsec+ cells): > 25 µM
%Imax (HBV [1]; p1 inhibitor, hit confirmation DRC): 94.5%
EC50 (HBV [1]; p1 inhibitor, hit confirmation DRC, 10-point serial dilutions starting at 25 μM): 11.7 µM

Cc1nc2ccc(CN(C)c3ccc(C(=O)N[C@@H](CCC(=O)O)C(=O)O)s3)cc2c(=O)[nH]1 [Raltitrexed]
Emax (HBV [2]; Hepatitis B virus): 93.7%

CCOC(=O)C1=C(CN2CCOCC2)NC(c2nccs2)=NC1c1ccc(F)cc1Br (stereo not drawn) [GLS4]
HBcAg phenotype under CpAM treatment (HBV [1]; class II core protein allosteric modifiers, Fig. S4): aggregated HBcAg phenotype

C=C1[C@@H](C)[C@H]2[C@H](Cc3ccccc3)NC(=O)[C@]23[C@H](OC(C)=O)/C=C/[C@@](C)(O)C(=O)[C@@H](C)C/C=C/[C@H]3[C@@H]1O [Cytochalasin D, cytochalasin D]
effect on HIV-1 infection (HIV-1): minor activity in both virus systems
effect on SARS-CoV-2 infection (SARS-CoV-2 [3]; Fig. S3): minor activity in both virus systems; also recorded: inhibits SARS-CoV-2 infection
anti-HBV activity in time-of-addition experiments (HBV [4]): exhibited anti-HBV activity exclusively under the pretreatment/cotreatment conditions
effect on preS1 peptide binding to NTCP (NTCP [5]): did not prevent the binding
effect on preS1 peptide binding to NTCP (NTCP [5]; listed as cytochalasin D): did not interfere with receptor–virus binding
EC50 (HBV [1]; [11]): 0.07 µM
Imax (%), early HBV life cycle inhibitors (HBV [1]; p1 cells): 86%
effect on internalisation of HBV preS1 peptide [6]: prevented the internalisation of HBV; also recorded: partially reduced; also recorded: partial retention of the peptide at the plasma membrane
effect on SARS-CoV-2 cell entry (SARS-CoV-2 [7]): prevent SARS-CoV-2 cell entry

O=C(CN(c1cc(C(F)(F)F)ccc1Cl)S(=O)(=O)c1ccccc1)NCc1ccncc1 [CCC-0975]
EC50 (HBV [8]; System HepDE19, ref PMID 22644022): 10 µM
effect on p2 cell infection / infectivity of HBV progeny (HBV [2]; after supernatant transfer): inhibited HBV infection in p1 and p2 cells
EC50 (HBV [2]; read-out: EC50, p2 infection (after supernatant transfer), p2 cells): ~8 µM
%Imax, p1 infection (HBV [1]; p1 cells): 60%
EC50 (HBV [1]; [12]): ~5 µM
effect on p1 cell infection (phenotype) (HBV [1]): inhibited HBV infection in p1 and p2 cells

Nc1ccn([C@@H]2CS[C@H](CO)O2)c(=O)n1 [LMV, lamivudine]
EC50 (HBV [2]; Hepatitis B virus, read-out: EC50 (μM), late HBV life cycle inhibitors, infectious HBV genotype D, p2 cells): 0.02 µM
p2 cells still infected at high inhibitor concentrations (HBV [2]): 2–5%
Imax (%), late HBV life cycle inhibitors (HBV [2]; p2 cells): 98%
EC50 (HBV [1]; Hepatitis B virus, read-out: EC50, p1 infection): > 10 µM

Cc1cccc([C@H](C)c2cnc[nH]2)c1C [Dexmedetomidine, dexmedetomidine]
effect on HCV replication and secretion (HCV): no inhibition was observed; also recorded: do not interfere in the production and spread
effect on HBV replication / HBV DNA secretion in HepAD38 cells (HBV [9]): without reducing HBV replication or genome secretion; also recorded: did not inhibit HBV DNA replication
effect on SARS-CoV-2 infection (SARS-CoV-2 [3]): no inhibition was observed; also recorded: do not interfere in the production and spread
Imax (%), late HBV life cycle inhibitors (HBV [2]): 82%
effect on p2 cell infection / infectivity of HBV progeny (HBV [2]): interfered with the infectivity of HBV progeny; also recorded: mitigated the infectivity of secreted progeny HBV particles; also recorded: strongly suppresses the infectivity of secreted progeny HBV particles
EC50 (HBV [2]; Hepatitis B virus, read-out: EC50 (μM), late HBV life cycle inhibitors): 6.2 µM
EC50 (HBV [2]; read-out: EC50 (μM), late HBV life cycle inhibitors): 6.23 µM

CCC(C)(C)C(=O)O[C@H]1C[C@@H](C)C=C2C=C[C@H](C)[C@H](CC[C@@H]3C[C@@H](O)CC(=O)O3)[C@H]21 [Simvastatin]
Emax (HBV [2]; Hepatitis B virus): 99.9%

COC(=O)Nc1nc2ccc(C(=O)c3cccs3)cc2[nH]1 [Nocodazole]
Emax (HBV [2]; Hepatitis B virus): 91.8%

C#CCC(Cc1cnc2nc(N)nc(N)c2n1)c1ccc(C(=O)N[C@@H](CCC(=O)O)C(=O)O)cc1 (stereo partly drawn) [Pralatrexate]
Emax (HBV [2]; Hepatitis B virus): 102%

C=C1[C@H](CO)[C@@H](O)C[C@@H]1n1cnc2c(=O)[nH]c(N)nc21 [Entecavir]
Emax (HBV [2]; Hepatitis B virus): 96.7%

CC[C@H](C)C(=O)O[C@H]1CCC=C2C=C[C@H](C)[C@H](CC[C@@H]3C[C@@H](O)CC(=O)O3)[C@H]21 [Mevastatin]
Emax (HBV [2]; Hepatitis B virus): 101%

CC[C@]1(O)C[C@H]2CN(CCc3c([nH]c4ccccc34)[C@@](C(=O)OC)(c3cc4c(cc3OC)N(C=O)[C@H]3[C@@](O)(C(=O)OC)[C@H](OC(C)=O)[C@]5(CC)C=CCN6CC[C@]43[C@@H]65)C2)C1 [Vincristine]
Emax (HBV [2]; Hepatitis B virus): 96.9%

O=C(Nc1cccc2c(=O)cc(-c3nnn[nH]3)oc12)c1ccc(OCCCCc2ccccc2)cc1 [Pranlukast, pranlukast]
effect on HIV-1 infection (HIV-1): only inhibited HIV-1
effect on SARS-CoV-2 infection (SARS-CoV-2 [3]; Fig. S3): only inhibited HIV-1; also recorded: but not pranlukast
anti-HBV activity in time-of-addition experiments (HBV [4]): exhibited anti-HBV activity exclusively under the pretreatment/cotreatment conditions
EC50 (NTCP [5]): 7.6 µM
effect on preS1 peptide binding to NTCP (NTCP [5]): inhibited HBV preS1 binding
effect on preS1 peptide binding to NTCP (NTCP [5]; listed as pranlukast): blocked the binding
effect on NTCP bile acid transporter function (NTCP [10]): inhibits the bile acid transporter function
EC50 (HBV [1]; [11]): 4.3 µM
Imax (%), early HBV life cycle inhibitors (HBV [1]; p1 cells): 92%

IFNα
antiviral effect on late HBV life cycle steps (HBV [2]): no or only insignificant antiviral effects
antiviral effect on early HBV life cycle steps (HBV [1]; p1 cells treated over several weeks, Fig. S5A): no or only insignificant antiviral effects

COc1cc(C(=O)NS(=O)(=O)c2ccccc2C)ccc1Cc1cn(C)c2ccc(NC(=O)OC3CCCC3)cc12 [zafirlukast]
concentration significantly inhibiting HBV and HDV infection (HBV and HDV): 6 µM

O=C(O)P(=O)(O)O [Foscarnet]
Emax (HBV [2]; Hepatitis B virus): 94.2%

Cc1c(C(=O)NN2CCCCC2)nn(-c2ccc(Cl)cc2Cl)c1-c1ccc(Cl)cc1 [Rimonabant]
Emax (HBV [2]; Hepatitis B virus): 99.4%

CC(C)OC(=O)OCOP(=O)(CO[C@H](C)Cn1cnc2c(N)ncnc21)OCOC(=O)OC(C)C.O=C(O)/C=C/C(=O)O [TDF, tenofovir disoproxil fumarate]
effect on p2 cell infection / infectivity of HBV progeny (HBV [2]; after supernatant transfer): reduced number of infected p2 cells
p2 cells still infected at high inhibitor concentrations (HBV [2]): 2–5%
EC50 (HBV [1]; [12]): > 50 µM
effect on p1 cell infection (phenotype) (HBV [1]): did not affect the infection status of p1 cells

CC[C@@H]([C@H](C)O)n1ncn(-c2ccc(N3CCN(c4ccc(OC[C@@H]5CO[C@@](Cn6cncn6)(c6ccc(F)cc6F)C5)cc4)CC3)cc2)c1=O [Posaconazole]
Emax (HBV [2]; Hepatitis B virus): 96.4%

COC(=O)C1=C(C)NC(c2ncc(F)cc2F)=N[C@H]1c1ccc(F)cc1Cl [Bay41-4109]
%Imax, p2 infection (HBV [2]; p2 cells): 99%
%Imax, p1 infection (HBV [1]; p1 cells): 99%
EC50 (HBV [1]; [12]): 1.3 µM

O=c1[nH]c(=O)n([C@H]2C[C@H](O)[C@@H](CO)O2)cc1F [Floxuridine]
Emax (HBV [2]; Hepatitis B virus): 97.6%

O=C1Cc2ccccc2C(=O)N1O [HID, N-hydroxyisoquinolinedione]
EC50 (HBV [8]; System HepDES19, ref PMID 24858512): 4.2 µM
effect on p2 cell infection / infectivity of HBV progeny (HBV [2]; after supernatant transfer): reduced number of infected p2 cells
p2 cells still infected at high inhibitor concentrations (HBV [2]): 2–5%
%Imax, p2 infection (HBV [2]; p2 cells): 99%
EC50 (HBV [1]; [12]): > 50 µM
effect on p1 cell infection (phenotype) (HBV [1]): did not affect the infection status of p1 cells

CC(C)OC(=O)[C@H](C)N[P@](=O)(CO[C@H](C)Cn1cnc2c(N)ncnc21)Oc1ccccc1 [GS-7340]
EC50 (HBV [2]; Hepatitis B virus): < 0.05 µM
Emax (HBV [2]; Hepatitis B virus): 99.4%

CC(C)(C)c1cc(C(=O)/C=C/c2ccc(C(=O)O)cc2)cc(C(C)(C)C)c1 [Ch 55]
CC50 (HepG2-NTCPsec+ cells): > 25 µM
%Imax (HBV [2]; p2 inhibitor, hit confirmation DRC): 99.9%
EC50 (HBV [2]; p2 inhibitor, hit confirmation DRC, 10-point serial dilutions starting at 25 μM): 3.21 µM

Nc1ncn([C@H]2C[C@H](O)[C@@H](CO)O2)c(=O)n1 [Decitabine]
Emax (HBV [2]; Hepatitis B virus): 91.9%
